The source of these data is patent US10081628B2, “Apoptosis-inducing agents for the treatment of cancer and immune and autoimmune diseases” (AbbVie Inc., priority 2013, dated 2018).

Experiment [1] has as its system RS4;11 cells. The note with it: Blood, 2008, Vol. 111, 2300-2309; cited from earlier work.
In experiment [2] the test system is RS4;11 cells. The experiment is described as follows: RS4;11 cell viability assay (CellTiter Glo). Type of experiment: cell-based. The note with it: 10% human serum, 48 hours. A digest of the protocol:
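Cells seeded at 50,000 per well and exposed to compounds for 48 h at 37 C, 5% CO2 in the presence of 10% human serum. Viability read by CellTiter Glo; EC50 derived from percentage of viable cells versus untreated controls.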
(In ATP-based viability assays light output follows the ATP content of the culture.)

Experiment [3] concerns lymphocytes. The experiment is described as follows: Lymphocyte reduction in C57BL/6 mice. Type of experiment: in vivo. The note with it: Mus musculus, ip. A digest of the protocol:
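C57Bl/6 mice dosed intraperitoneally at 30 mg/kg daily for four days. Blood cell counts by hematology analyzer 24 hours after first and last doses; exposure (AUC) from samples at 1, 6, 10 and 24 hours after last dose.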

The target in experiment [4] is GST-Bcl-2 (Homo sapiens, UniProt P10415). Briefly: TR-FRET Bcl-2 binding assay (F-Bak peptide probe). The settings on record: GST-Bcl-2 1 nM, F-Bak peptide probe 100 nM, Tb-anti-GST 1 nM; Wang's equation; '<' = below limit of detection. A digest of the protocol: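 Competitive TR-FRET displacement of F-Bak peptide probe from GST-Bcl-2 detected with Tb-anti-GST antibody; compounds serially diluted in DMSO from 50 μM (2× starting concentration). Mixtures incubated 3 h at room temperature, read at 340 nm excitation with 520 and 495 nm emission. Ki derived by Wang's equation.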
GST-Bcl-2, sequence (P10415 whole entry): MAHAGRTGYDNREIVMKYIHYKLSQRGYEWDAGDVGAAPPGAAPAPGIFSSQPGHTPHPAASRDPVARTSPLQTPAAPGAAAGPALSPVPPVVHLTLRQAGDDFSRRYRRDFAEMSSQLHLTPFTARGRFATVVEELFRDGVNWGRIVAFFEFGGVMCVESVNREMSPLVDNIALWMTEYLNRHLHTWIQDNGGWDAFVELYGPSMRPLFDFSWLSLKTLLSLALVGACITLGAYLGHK
(In general: Time-resolved FRET reads energy transfer from a long-lived donor to a nearby acceptor.)

Where [5] appears, read: 30 mg/kg intraperitoneal every day for four days, 24 hours after the last dose, read-out: Lymphocyte reduction % inh. day 4.
The mark [6] stands for this setting: 30 mg/kg intraperitoneal every day, 24 hours after the first dose, read-out: Lymphocyte reduction % inh. day 1.

Read-outs that look alike come from different tables or passages of the source.

Turning to `CN(C)CC[C@H](CSc1ccccc1)Nc1ccc(S(=O)(=O)NC(=O)c2ccc(N3CCN(Cc4ccccc4-c4ccc(Cl)cc4)CC3)cc2)cc1[N+](=O)[O-]` [ABT-737, N-(4-(4-((4′-chloro(1,1′-biphenyl)-2-yl)methyl)piperazin-1-yl)benzoyl)-4-(((1R)-3-(dimethylamino)-1-((phenylsulfanyl)methyl)propyl)amino)-3-nitrobenzenesulfonamide], in experiment [1], the “sensitivity of RS4;11 cells to the Bcl-2 family member inhibitor” value was “sensitive”.
The EC50 is the concentration that produces a half-maximal response. Read a high EC50 as a less potent agent. In general, Ki refers to the equilibrium dissociation constant of an inhibitor or competing ligand from its target. A high value points to a looser hold on the target. In turn, `C[C@@H]1COC[C@H](CNc2ccc(S(=O)(=O)NC(=O)c3ccc(N4CCN(CC5=C(c6ccc(Cl)cc6)CC(C)(C)CC5)CC4)cc3Oc3cnc4[nH]ccc4c3)cc2[N+](=O)[O-])O1` [Example 35, 4-(4-{[2-(4-chlorophenyl)-4,4-dimethylcyclohex-1-en-1-yl]methyl}piperazin-1-yl)-N-{[4-({[(2S,6R)-6-methyl-1,4-dioxan-2-yl]methyl}amino)-3-nitrophenyl]sulfonyl}-2-(1H-pyrrolo[2,3-b]pyridin-5-yloxy)benzamide] yielded an EC50 in experiment [2] of 12 nM. Besides, the results for the inhibition at 30 mg/kg in experiment [3] (setting [5]) and in experiment [3] (setting [6]) were 49% and 54%, respectively. The Ki in experiment [4] is less than 0.1 nM.
In experiment [2], `CC1(C)CCC(CN2CCN(c3ccc(C(=O)NS(=O)(=O)c4ccc(NC[C@@H]5CCOC5)c([N+](=O)[O-])c4)c(Oc4cnc5[nH]ccc5c4)c3)CC2)=C(c2ccc(Cl)cc2)C1` [Example 36, 4-(4-{[2-(4-chlorophenyl)-4,4-dimethylcyclohex-1-en-1-yl]methyl}piperazin-1-yl)-N-[(3-nitro-4-{[(3 S)-tetrahydrofuran-3-ylmethyl]amino}phenyl)sulfonyl]-2-(1H-pyrrolo[2,3-b]pyridin-5-yloxy)benzamide] gave an EC50 of 32 nM. Besides, the inhibition at 30 mg/kg turned out to be 42% in experiment [3] (setting [5]) and 47% in experiment [3] (setting [6]). In experiment [4], this compound came in with a Ki of less than 0.1 nM.
Take `CC1(C)CCC(CN2CCN(c3ccc(C(=O)NS(=O)(=O)c4ccc(NC[C@H]5COCC(C)(C)O5)c([N+](=O)[O-])c4)c(Oc4cnc5[nH]ccc5c4)c3)CC2)=C(c2ccc(Cl)cc2)C1` [Example 37, 4-(4-{[2-(4-chlorophenyl)-4,4-dimethylcyclohex-1-en-1-yl]methyl}piperazin-1-yl)-N-{[4-({[(2S)-6,6-dimethyl-1,4-dioxan-2-yl]methyl}amino)-3-nitrophenyl]sulfonyl}-2-(1H-pyrrolo[2,3-b]pyridin-5-yloxy)benzamide]: the EC50 in experiment [2] stood at 250 nM. The inhibition at 30 mg/kg in experiment [3] (setting [5]) came out at 22%; in experiment [3] (setting [6]), 28%. Also, the Ki in experiment [4] is less than 0.1 nM.
Turning to `C[C@@H]1CO[C@@H](CNc2ccc(S(=O)(=O)NC(=O)c3ccc(N4CCN(CC5=C(c6ccc(Cl)cc6)CC(C)(C)CC5)CC4)cc3Oc3cnc4[nH]ccc4c3)cc2[N+](=O)[O-])CO1` [Example 44, 4-(4-{[2-(4-chlorophenyl)-4,4-dimethylcyclohex-1-en-1-yl]methyl}piperazin-1-yl)-N-{[4-({[(2S,5R)-5-methyl-1,4-dioxan-2-yl]methyl}amino)-3-nitrophenyl]sulfonyl}-2-(1H-pyrrolo[2,3-b]pyridin-5-yloxy)benzamide], in experiment [2], a half-maximal response (EC50) required 4.7 nM. The inhibition at 30 mg/kg in experiment [3] (setting [5]) was found to be 60%; in experiment [3] (setting [6]) it was 66%. Also, the Ki in experiment [4] was less than 0.1 nM.
On the same counts, the results for `CC1(C)CCC(CN2CCN(c3ccc(C(=O)NS(=O)(=O)c4ccc(NCC5(C#N)CCOCC5)c([N+](=O)[O-])c4)c(Oc4cnc5[nH]ccc5c4)c3)CC2)=C(c2ccc(Cl)cc2)C1` [Example 46, 4-(4-{[2-(4-chlorophenyl)-4,4-dimethylcyclohex-1-en-1-yl]methyl}piperazin-1-yl)-N-[(4-{[(4-cyanotetrahydro-2H-pyran-4-yl)methyl]amino}-3-nitrophenyl)sulfonyl]-2-(1H-pyrrolo[2,3-b]pyridin-5-yloxy)benzamide] are 6.9 nM, 35%, 46% and less than 0.1 nM.
